Earlier results in patent publication US4808590A (priority 1988, dated 1989).

Details: British Patent Specification Nos. 1,078,049 and 932,875; cited from earlier work

## C=C1C[C@](OC)([C@H](O)C(=O)N[C@@H](OC)[C@@H]2C[C@@H](O)C(C)(C)[C@@H](C[C@@H](COC)OC)O2)O[C@H](C)[C@@H]1C [Pederin]
  antimitotic activity: shows antimitotic activity
